According to patent US11541121B2, “Phosphorothioate-conjugated peptides and methods of using the same” (CITY OF HOPE, priority 2017, dated 2023):
Where no end group is shown, it is not given here. [ ]: non-standard residue; d: D form. pY = N[C@@H](Cc1ccc(OP(=O)(O)O)cc1)C(=O)O

Columns and labels:
[1] = system: IL-6/gp130/STAT3 target genes; experiment: RT-PCR of IL-6/gp130/STAT3 acute-phase target genes in IL-6 stimulated HepG2 cells; assay type: cell-based, human; conditions: 1.0 μM, 24 h upon IL-6 stimulation
Method: (§1) Human hepatoma cells HepG2 were treated as indicated with 1.0 μM gp130-peptide (i.e., IL6-65 represents phosphorothioate elongated SEQ ID NO:4, IL6-96 represents phosphorothioate elongated SEQ ID NO:8, and IL-63 represents phosphorothioate elongated SEQ ID NO:9) for 24 h upon IL-6 stimulation. mRNA was isolated and target gene expression was assessed by RT-PCR. SD shown; T-test: *) P<0.05, **) P<0.01, ***) P<0.001.
Interleukin-6 (IL-6) signaling feeds intracellular STAT3 activity by binding to the extracellular domain of IL-6Ralpha (gp80) recruiting the signaling co-receptors IL-6Rbeta (gp130). IL-6 engagement to these receptors leads to the phosphorylation of 6 tyrosine residues in the cytoplasmic tail of gp130; 3 of those phospho-tyrosines (pY767, pY905 and pY915) serve as the major docking sites recognized by STAT3s SH2 domain initiating STAT3 intracellular signaling. Applicants disclose these three gp130-peptides modified by phosphorothioated ssDNA extension (FIG. 13) considerably reduce expression of a repertoire of IL-6/gp130/STAT3 target genes orchestrating the acute-phase inflammatory response (FIG. 15) once they undergo cellular internalization (FIG. 14).

pY-STAT3 = pY-STAT3 Western blot in IL-6 stimulated HepG2 cells; assay type: cell-based, human; conditions: 1.0 μM, 30 min prior to IL-6 stimulation
Method: FIG. 16: gp130-peptide treatment of cancer cells inhibits pY-STAT3 activation. Human hepatoma cells HepG2 were treated as indicated with 1.0 μM gp130-peptide peptide (i.e., 2263165 is phosphorothioate elongated SEQ ID NO:4, 1209196 is phosphorothioate elongated SEQ ID NO:8, and 2263163 is phosphorothioate elongated SEQ ID NO:9) for either 30 min prior to IL-6 stimulation. Whole cell lysates were subjected to electrophoretic protein separation and STAT3 activity was assessed by Western blot detecting phospho-tyrosine. Total STAT3 protein staining was included as a loading control.
Human hepatoma cells HepG2 were treated as indicated with 1.0 uM gp130-peptide for either 30 min prior to IL-6 stimulation. Whole cell lysates were subjected to electrophoretic protein separation and STAT3 activity was assessed by Western blot detecting phospho-tyrosine. Total STAT3 protein staining was included as a loading control.

[2] = system: IL-6/gp130 signaling; EGFR signaling; experiment: IL-6 versus EGF stimulated signaling in HepG2 cells (STAT3 and MAPK p42/44 Western blot); assay type: cell-based, human; conditions: 1.0 μM, 30 min prior to IL-6 or EGF stimulation
Method: Human hepatoma cells HepG2 were treated as indicated with 1.0 μM gp130-peptide peptide (i.e., 65 is phosphorothioate elongated SEQ ID NO:4, 96 is phosphorothioate elongated SEQ ID NO:8, and 63 is phosphorothioate elongated SEQ ID NO:9) for either 30 min prior to IL-6 or EGF stimulation. Whole cell lysates were subjected to electrophoretic protein separation and STAT3 as well as MAPK (p42/44) activity was assessed by Western blot. Total STAT3 and MAPK (p42/44) protein staining was included as a loading control.

[3] = system: survivin (BIRC5) and BclXL (BCL2L1); experiment: RT-PCR of cancer cell survival genes in HepG2 cells; assay type: cell-based, human; conditions: 1.0 μM, 24 h upon IL-6 stimulation
Method: as §1, with “T-test:” for “T-test: *) P<0.05, **) P<0.01,”

[4] = system: W76964 (mouse pancreatic cancer cell line) cells; experiment: Cell penetration in W76964 cells (flow cytometry); assay type: cell-based; conditions: 1×10^6 cells, 10 μg, 2 hours at 37° C.
Method: FIGS. 29A-29B: Combination treatment of cell-penetrating Gp130-inhibitory peptide (i.e., Gp130 peptide) and c-MYC-inhibitory peptide (i.e., c-MYC binding peptide) (SEQ ID NO:10) suppresses tumor growth in a syngeneic mouse model of pancreatic cancer. FIG. 29A. […] 1×10^6 cells were incubated with 10 μg of PS-GP130- or PS-c-MYC-peptide for 2 hours at 37° C. […] FIG. 29B. W76964 cells were engrafted in C57BL/6 mice to generate tumors. After tumor size reached approximately 80 mm^3, PO-Gp130 or PS-GP130 was mixed with PS-c-MYC-inhibitory peptide (1:1 ratio) to treat mice systemically (i.v.) at 20 μg every other day. Tumor size was measured by a caliber. Tumor volume was calculated (V=(L×W×W)), where V is tumor volume, W is tumor width, L is tumor length. When some tumors start to reach 600 mm^3, all groups of mice were euthanized at the same time using protocols approved by IACUC of City of Hope. N=6 as indicated.
1×10^6 cells were incubated with 10 μg of PS-GP130- or PS-c-MYC-peptide for 2 hours at 37° C. […] W76964 cells were engrafted in C57BL/6 mice to generate tumors (FIG. 29B). […] Tumor size was measured by a caliber. Tumor volume was calculated (V=(L×W×W)), where V is tumor volume, W is tumor width, L is tumor length. […]

| Substance | expression of IL-6/gp130/STAT3 target genes of the acute-phase inflammatory response [1] | pY-STAT3 levels / STAT3 activity (pY-STAT3) | specificity: IL-6/gp130 signaling versus EGF/EGFR signaling [2] | expression of survival genes survivin (BIRC5) and BclXL (BCL2L1) [3] | cell penetration, flow cytometry [4] |
| --- | --- | --- | --- | --- | --- |
| PS-1209196: phosphorothioate elongated SEQ ID NO:8, gp130 peptide phosphorylated at tyrosine 905, MPKSpYLPQTV (MPKS[pY]LPQTV; also: phosphorothioate elongation) | significantly reduces | inhibitory efficacy | specifically inhibits IL-6/gp130 signaling but not EGFR signaling | significantly reduces | – |
| PS-2263163: phosphorothioate elongated SEQ ID NO:9, gp130 peptide phosphorylated at tyrosine 915, RQGGpYMPQ (RQGG[pY]MPQ; also: phosphorothioate elongation) | significantly reduces | inhibitory efficacy | specifically inhibits IL-6/gp130 signaling but not EGFR signaling | significantly reduces | – |
| PS-2263165: phosphorothioate elongated SEQ ID NO:4, gp130 peptide phosphorylated at tyrosine 767, VHSGpYRHQVPS (VHSG[pY]RHQVPS; also: phosphorothioate elongation) | significantly reduces | inhibitory efficacy | specifically inhibits IL-6/gp130 signaling but not EGFR signaling | significantly reduces | – |
| PS-c-MYC-inhibitory peptide: phosphorothioate-conjugated c-MYC binding peptide SEQ ID NO:10 KNDTHQQDIDDLK (also: phosphorothioate-conjugated) | – | – | – | – | cell penetration |
